These results are taken from patent US20040197407A1, “Methods and dosage forms with modified layer geometry” (priority 2003, published 2004).

The conditions of data set [1]: cited from earlier work.
For data set [2] the following is noted: FIG. 6. From the text: FIG. 6 illustrates blood plasma concentrations at various times achieved through various means of delivery. This figure illustrates the time necessary to achieve a particular blood plasma concentration.
For data set [3] the following is noted: in vivo; cited from earlier work.
For data set [4] the following is noted: in vivo; cited from earlier work. The source holds these as a separate data set.

Molecules are shown by their SMILES. Structures can show the parent of a compound that is named as a salt.

On to `CN(C)CCC=C1c2ccccc2C=Cc2ccccc21` [Cyclobenzaprine hydrochloride, cyclobenzaprine hydrochloride], for which, in data set [1] (alcohol), the solubility in alcohol entry is given as “freely soluble”. Also, the “solubility in hydrocarbon solvents” value in data set [1] (hydrocarbon solvents) is “insoluble”. The solubility in isopropanol result in data set [1] (isopropanol) is recorded as “sparingly soluble”. Besides, the solubility in water entry in data set [1] (water) is “freely soluble”.

Take `CN(C)CCC=C1c2ccccc2C=Cc2ccccc21` [cyclobenzaprine]: the colonic absorption entry in data set [2] is reported as “colonic absorption”. Moreover, the half-life in data set [3] is 24 to 72 h. For the same compound, the reported side effects result in data set [4] was “sedation and dry mouth”.
